Drawing on patent US9914732B2, “Diazabicyclo[4.3.1]decane derivatives for treatment of psychiatric disorders” (Max-Planck-Gesellschaft zur Forderung der Wissenschaften …, priority 2014, dated 2018), this text covers Ki for eleven molecules.

In one assay the target is T1, FKBP51 (Homo sapiens, UniProt Q13451).
T1 sequence (Q13451 42-130 limits assumed): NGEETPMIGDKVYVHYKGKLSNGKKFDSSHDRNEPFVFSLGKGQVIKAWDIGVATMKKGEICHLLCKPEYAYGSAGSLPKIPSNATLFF
In words: Fluorescence polarization (FP) assay, binding to the FK506-binding domain of FKBP51. The following applies: FK506-binding domain of FKBP51 (FKBP51FK1), competition with fluorescent ligand 2b. The method, then: (§1) In the present invention, in vitro fluorescence polarization assays with the compounds of the general formula (I) were performed to determine the binding affinities to FKBP51 and FKBP52 or to the isolated FK506-binding domains of FKBP51 and FKBP52 ([…]). Binding to the isolated FK506-binding domains is reliably indicative of binding to the full length proteins. The affinities for the isolated FK506-binding domains and for full-length FKBP51 or FKBP52 are the same for all compounds tested so far (Kozany et al, ChemBioChem 2009, 10, 1402-1410).
(§2) Example 11: Fluorescence Polarization (FP) Assays
(§3) In-vitro fluorescence polarization assays were performed to determine the binding affinities for FKBP51 and 52 according to a literature procedure (Kozany, C.; Marz, A.; Kress, C.; Hausch, F., Fluorescent probes to characterise FK506-binding proteins. Chembiochem 2009, 10, (8), 1402-10).
(§4) For fluorescence polarization assays the fluorescent ligand 2b was dissolved in HEPES (20 mm, pH 8), Triton-X100 (0.01%), at double the concentration required for the final sample. The target protein was also diluted in this assay buffer at double the highest concentration required for the final sample. This protein stock was used for a 1:1 serial dilution.
(§5) The fluorescent ligand 2b was diluted in assay buffer to a concentration double the final concentration (20 nM 2b). The inventive compound was dissolved in DMSO to reach a 100-times concentrated stock solution. This was used for a 1:1 serial dilution in DMSO. Every sample of this serial dilution was diluted by a factor of 50 in assay buffer supplemented with ligand 2b to achieve a 2× concentrated mixture of ligand 2b and the inventive compound. To this competitive ligand double the protein concentration for 2b assay: FKBP51FK1 560 nM (2×280 nM) or FKBP52FK1 800 nM (2×400 nM) diluted in assay buffer was added.
(§6) The samples were transferred to black 384-well assay plates (No.: 3575; Corning Life Sciences). After incubation at room temperature for 30 min the fluorescence anisotropy was measured (GENios Pro, Tecan, Männedorf, Switzerland) by using an excitation filters of 485/20 nm and emission filters of 535/25 nm. The binding assays were performed in duplicates in the plate format.
(§7) The competition curves were analyzed by using SigmaPlot9. Data were fitted to a four parameter logistic curve to deduce the IC50 values. For the analysis of K1 values, data were fitted to the following equation (Z. X. Wang, FEBS Lett. 1995, 360, 111-114). A=(Amax−Amin)/[L]t×(([L]t×((2×((Klig+Kcomp+[L]t+[I]t−[R]t)^2−3×(Kcomp×([L]t−[R]t)+Klig×([I]t−[R]t)+[…]))^0.5×COS(ARCCOS((−2×(Klig+Kcomp+[L]t+[I]t−[R]t)^3+9×(Klig+Kcomp+[L]t+[I]t−[R]t)×(Kcomp×([L]t−[R]t)+Klig×([I]t−[R]t)+Klig×Kcomp)−27×(−1×Klig×Kcomp×[R]t))/(2×((((Klig+Kcomp+[L]t+[I]t−[R]t)^2−3×(Kcomp×([L]t−[R]t)+Klig×([I]t−[R]t)+Klig×Kcomp))^3)^0.5)))/3))−(Klig+Kcomp+[L]t+[I]t−[R]t)))/((3×Klig)+((2×((Klig+Kcomp+[L]t+[I]t−[R]t)^2−3×(Kcomp×([L]t−[R]t)+Klig×([I]t−[R]t)+Klig×Kcomp))^0.5×COS(ARCCOS((−2×(Klig+Kcomp+[L]t+[I]t−[R]t)^3+9×(Klig+Kcomp+[L]t+[I]t−[R]t)×(Kcomp×([L]t−[R]t)+Klig×([I]t−[R]t)+Klig×Kcomp)−27×(−1×Klig×Kcomp×[R]t))/(2×((((Klig+Kcomp+[L]t+[I]t−[R]t)^2−3×(Kcomp×([L]t−[R]t)+Klig×([I]t−[R]t)+Klig×Kcomp))^3)^0.5)))/3))−(Klig+Kcomp+[L]t+[I]t−[R]t)))+Amin
(§8) In this equation Klig and Kcomp stand for the Kd values of the used tracer or competing inhibitor, [I]t is referring to the total concentration of the titrated inhibitor.
Background: Polarisation of emitted light reports the rotation of a fluorescent probe.

Another assay deals with T2, FKBP52 (Homo sapiens, UniProt Q02790).
T2 sequence (Q02790 50-138 limits assumed): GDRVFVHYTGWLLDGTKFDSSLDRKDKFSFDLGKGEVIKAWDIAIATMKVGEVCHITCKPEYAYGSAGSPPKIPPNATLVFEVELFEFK
The experiment in a line: Fluorescence polarization (FP) assay, binding to the FK506-binding domain of FKBP52. Conditions: FK506-binding domain of FKBP52 (FKBP52FK1), competition with fluorescent ligand 2b. On the procedure: as §1, §2, §3, §4, §5, §6, §7, §8

On to `C=CC1CN(Cc2ccccn2)C(=O)C2CCCC1N2S(=O)(=O)c1cccc(C(N)=O)c1` (stereo in doubt) [Compound K17, 3-(((1S,5R,6R)-2-oxo-3-(pyridin-2-ylmethyl)-5-vinyl-3,10-diazabicyclo[4.3.1]decan-10-yl)sulfonyl)benzamide], for which the inhibition constant (Ki) on FKBP51 and at FKBP52 was 100 to 500 nM each time.
Regarding `COCCO[C@H]1CN(CCOC)C(=O)[C@@H]2CCC[C@H]1N2S(=O)(=O)c1cc(Cl)cc(Cl)c1` [Compound H2.1, (1S,5S,6R)-10-((3,5-dichlorophenyl)sulfonyl)-5-(2-methoxyethoxy)-3-(2-methoxyethyl)-3,10-diazabicyclo[4.3.1]decan-2-one], the inhibitory constant (Ki) on FKBP51 and on FKBP52 was 100 to 500 nM throughout.
For `CO[C@H]1CN(C)C(=O)[C@@H]2CCC[C@H]1N2S(=O)(=O)c1cc(Cl)cc(Cl)c1` [Compound H1.3, (1S,5S,6R)-10-((3,5-dichlorophenyl)sulfonyl)-5-methoxy-3-methyl-3,10-diazabicyclo[4.3.1]decan-2-one], the Ki on FKBP51 and on FKBP52 was 500 to 1000 nM each time.
Regarding `COc1ccc(OCCN2CCC3CCCC(C2=O)N3S(=O)(=O)c2cc(Cl)cc(Cl)c2)cc1OC` (stereo not shown) [Ref. 1, reference compound], the Ki at FKBP51 and on FKBP52 was 1000 to 5000 nM each time.
For `C=CC1CN(Cc2cnccn2)C(=O)C2CCCC1N2S(=O)(=O)c1cc(Cl)cc(Cl)c1` (stereo in doubt) [Compound J14, (1S,5R,6R)-10-((3,5-dichlorophenyl)sulfonyl)-3-(pyrazin-2-ylmethyl)-5-vinyl-3,10-diazabicyclo[4.3.1]decan-2-one], the inhibitory constant (Ki) on FKBP51 and on FKBP52 was 100 to 500 nM throughout.
With `O=C1C2CCCC(C(CO)CN1CCO)N2S(=O)(=O)c1cc(Cl)cc(Cl)c1` (stereo in doubt) [Compound C1, (1S,5R,6R)-10-((3,5-dichlorophenyl)sulfonyl)-3-(2-hydroxyethyl)-5-(hydroxymethyl)-3,10-diazabicyclo[4.3.1]decan-2-one], the Ki at FKBP51 and on FKBP52 was not above 100 nM each time.
On to `C=C[C@@H]1CN(Cc2ccccn2)C(=O)[C@@H]2CCC[C@H]1N2S(=O)(=O)c1cc(Br)cc(C(N)=O)c1` [Compound K18, 3-bromo-5-(((1S,5R,6R)-2-oxo-3-(pyridin-2-ylmethyl)-5-vinyl-3,10-diazabicyclo[4.3.1]decan-10-yl)sulfonyl)benzamide], for which the Ki at FKBP51 and at FKBP52 was 100 to 500 nM each time.
Take `COCCN1C[C@H](CCO)[C@H]2CCC[C@@H](C1=O)N2S(=O)(=O)c1cc(Cl)cc(Cl)c1` [Compound B8, (1S,5S,6R)-10-((3,5-dichlorophenyl)sulfonyl)-5-(2-hydroxyethyl)-3-(2-methoxyethyl)-3,10-diazabicyclo[4.3.1]decan-2-one]: the Ki on FKBP51 and at FKBP52 was 100 to 500 nM in each case.
With `COC[C@H]1CN(Cc2cnnn2C(=O)c2ccccc2)C(=O)[C@@H]2CCC[C@H]1N2S(=O)(=O)c1cccc(F)c1` [Compound N31, (1S,5S,6R)-3-((1-benzoyl-1H-1,2,3-triazol-5-yl)methyl)-10-((3-fluorophenyl)sulfonyl)-5-(methoxymethyl)-3,10-diazabicyclo[4.3.1]decan-2-one], the inhibition constant Ki on FKBP51 and on FKBP52 was 100 to 500 nM each time.
As for `C=C[C@@H]1CN(Cc2ccccn2)C(=O)[C@@H]2CCC[C@H]1N2S(=O)(=O)c1ccc(-c2ccccc2)nc1` [Compound K27, (1S,5R,6R)-10-((6-phenylpyridin-3-yl)sulfonyl)-3-(pyridin-2-ylmethyl)-5-vinyl-3,10-diazabicyclo[4.3.1]decan-2-one], the inhibition constant Ki at FKBP51 and on FKBP52 was 100 to 500 nM each time.
Regarding `COc1ccc(OCCN2C[C@H](C[C@H](C)O)C3CCCC(C2=O)N3S(=O)(=O)c2cc(Cl)cc(Cl)c2)cc1OC` (single isomer, unassigned) [Compound D5], the inhibition constant Ki on FKBP51 and at FKBP52 was not above 100 nM throughout.
